The test system of one test is PCA reaction. Put plainly: Mouse Passive Cutaneous Anaphylaxis (PCA) Test. It is filed as in vivo. To be noted: Male ICR (CD-1) mice; subcutaneously 30 minutes or orally 2 hours before antigen challenge. The method, then: 3. Mouse Passive Cutaneous Anaphylaxis (PCA) Test […] After 24 hours of the sensitization, 200 μl of 0.5% Evans blue solution containing 50 μg of DNP-conjugated bovine serum albumin was intravenously administered, and, after 30 minutes, each mouse was sacrificed through exsanguination to isolate both ears. […] The dye in the tissues was extracted with formaride and colorimetrically determined at 620 nm. A value obtained by subtracting the dye content of the left ear from the dye content of the right ear was used as the amount of dye leaked into the tissues by the PCA reaction. The PCA inhibition ratio by the test compound was calculated based on the following equation. In the formula, C: amount of the dye leaked into the tissue at the time of the administration of the vehicle alone, and x: amount of the dye leaked into the tissue at the time of the administration of the test compound. Inhibition ratio (%)={C-X}×100/C

In a further test the test system is release of serotonin. Put plainly: Serotonin Release Test. To be noted: read-out: inhibitory activity as IC50 value against the release of serotonin. It counts as cell-based. As to the method: 2. Serotonin Release Test
This was carried out in accordance with the method reported by Collado-Escobar et al. (Collado-Escobar, D et al. J. Immunol., 144: 3449-3457 (1990)).

The target of another test is T1, Syk (Homo sapiens, UniProt P43405).
T1 construct: FLAG tag (8 amino acid residues) (C); made in house; host or cells: Sf-9 insect cells (baculovirus, pFASTBAC HT)
Put plainly: Syk Tyrosine Kinase Inhibition Test (SPA system). It is filed as biochemical. An excerpt: 1. Syk Tyrosine Kinase Inhibition Test
1) Preparation of Syk Protein
Human Syk gene, in the form where a gene of FLAG tag consisting of 8 amino acid residues was linked to the 3′-end, was cloned using RT-PCR method from total RNA prepared from Jurkat cells. The amplified cDNA was incorporated into a vector, pFASTBAC HT, contained in Baculovirus Expression System (GIBCO BRL Inc.). The pFASTBAC HT is designed in such a manner that a His tag consisting of 6 histidine residues can be fused to the 5′-end of Syk. This plasmid DNA was introduced into competent cells, DH10BAC, contained in the Baculovirus Expression System to prepare DNA of recombinant virus. Thereafter, the recombinant virus (culture supernatant) was obtained by transfection of the DNA of recombinant virus into Sf-9 cells (ATCC). […]
SPA (Scintillation Proximity Assay) is a system developed by Amersham making use of a phenomenon in which scintillation occurs when a molecule having a radioactivity is in the proximity of (linked to) the surface of plastic beads containing a scintillant included therein. […]
The plate was sealed, stirred, allowed to stand at room temperature for 15 minutes and then centrifuged at 1,500 rpm for 3 minutes to precipitate the SPA beads. Radioactivity of each well was measured using TOP COUNT (PACKARD), and the tyrosine phosphorylation activity by Syk was calculated.

This is an account of results in patent publication US6797706B1, “Heterocyclecarboxamide derivative” (Yamanouchi Pharmaceutical Co., Ltd., priority 1999, dated 2004).

One may read the IC50 as the concentration that inhibits the measured activity by half.

As to `Cc1cccc(Nc2nc(N[C@@H]3CCCC[C@@H]3N)ccc2C(N)=O)c1.Cl` (relative stereo) [Example 1], in the test with PCA reaction, the “suppression of PCA reaction” value is reported as “excellently suppressed PCA reaction”.
On the same count and under the same terms, under `Cc1cccc(Nc2nc(N[C@@H]3CCCC[C@@H]3N)cnc2C(N)=O)c1` (relative stereo) [Example 2, 5-(cis-2-aminohexylamino)-3-(3-methylanilino)pyrazine-2-carboxamide] stands “excellently suppressed PCA reaction”.
As for `COc1cccc(Nc2nc(N[C@@H]3CCCC[C@@H]3N)cnc2C(N)=O)c1` (relative stereo) [Example 8, 5-(cis-2-aminocyclohexylamino)-3-(3-methoxyanilino)pyrazine-2-carboxamide], the IC50 in the test on release of serotonin is at most 100 nM. Moreover, in the test with PCA reaction, the “suppression of PCA reaction” value is given as “excellently suppressed PCA reaction”.
Taken in the same sequence, the figures for `COc1cc(Nc2nc(N[C@@H]3CCCC[C@@H]3N)cnc2C(N)=O)cc(OC)c1` (relative stereo) [Example 10, 5-(cis-2-aminocyclohexylamino)-3-(3,5-dimethoxyanilino)pyrazine-2-carboxamide] were at most 100 nM and “excellently suppressed PCA reaction”.
The matching figures for `CSc1ccc(Nc2nc(N[C@@H]3CCCC[C@@H]3N)cnc2C(N)=O)cc1` (relative stereo) [Example 11, 5-(cis-2-aminocyclohexylamino)-3-(4-methylsulfanylanilino)pyrazine-2-carboxamide]: at most 100 nM and “excellently suppressed PCA reaction”.
On to `CN(C)C(=O)c1cnc(NCCN)nc1Nc1cccc(C(F)(F)F)c1` [2-(2-aminoethylamino)-N,N-dimethyl-4-(3-trifluoromethylanilino)pyrimidine-5-carboxamide], for which, at Syk, the “inhibitory activity against Syk at 1 μM” value is given as “did not exhibit any inhibitory activity”.
Same read-out and setting: under `CNC(=O)c1cnc(NCCN)nc1Nc1cccc(C(F)(F)F)c1` [2-(2-aminoethylamino)-N-methyl-4-(3-trifluoromethylanilino)pyrimidine-5-carboxamide] stands “did not exhibit any inhibitory activity”.
